Reference: patent publication US10132029B2, “Method for reducing adhesion of microorganisms to fabrics” (priority 2013, dated 2018)

Key:
[1] = system: S. aureus DSMZ 20231; assay: Syto9 microtiter plate assay: adhesion of bacteria to coated polyester fabric samples; assay type: cell-based, Staphylococcus aureus; conditions: for Reduction in adhered bacteria [%]: S. aureus, polyester; for Reduction in adhered bacteria [%] S. aureus: polyester fabric, application concentration 0.1 wt %, commercial product applied directly by padding, relative to uncoated fabric
Experimental: Circular fabric samples with a diameter of 0.6 cm were punched from coated and uncoated cotton and polyester fabrics. The fabric samples were fixed to a microtiter plate. The fabric samples were washed with acetone and sterilized with UV light for 60 minutes.
The strains were coated fresh from glycerol bacterial cultures onto tryptic soy agar (TSA). Incubation took place overnight at 33° C. The nutrient medium prepared was a tryptic soy broth (TSB), with 30% of the amount recommended by the manufacturer, supplemented with 0.25% of glucose. […] The nutrient medium was inoculated with the bacterial cultures and after inoculation was cultivated overnight at 37° C. and 160 rpm.
The resulting overnight cultures were centrifuged at 8500 g for 15 minutes and washed with 50 ml of isotonic saline solution (0.9 wt %). Bacterial suspensions in isotonic saline solutions were prepared. The optical density of the various bacterial suspensions was determined at 595 nm and adjusted to a level of about 1.2.
50 μl of the final microorganism suspension in isotonic saline solution (0.9 wt %) prepared as described under 2.2 were added to the coated and uncoated fabric samples fixed on the microtiter plate (see 2.1). The microtiter plates were closed and sealed off with Parafilm. The microtiter plates were placed in an antievaporation box and incubated at 33° C. for 2 h and at 40 rpm. The expected colony-forming unit count (CFU) of the inoculum at the start was 10^6-10^7 CFU/ml.
After the biofilm had formed, the planctonic cells were removed and used as a sample for determining the optical density at 595 nm. For this purpose, the samples were made up to a volume of 150 μl, and 100 μl were withdrawn for the optical density determination in a photometer. The optical density of the corresponding control solution with sterile isotonic saline solution was subtracted from the optical densities found. Through the determination of the planctonic cells after the formation of biofilm, the amount of bacteria available for adhesion was monitored.
The fabric samples and the resulting biofilm were washed three times with 200 to 300 μl of isotonic saline solution.
The fabric samples obtained under 2.4 (after formation of biofilm) were placed together with 100 μl of isotonic saline solution into wells of a 96-well microtiter plate.
Investigations into the removal of the adhered microorganisms from the fabric surfaces were carried out with vortexing, ultrasound, with enzymatic treatment, or with combinations thereof. Treatment in the vortex amounted to 5 minutes and was performed horizontally. The ultrasound treatment was carried out in an ultrasound bath for 5 minutes. For the enzymatic removal, the fabric samples were treated with enzymes, such as trypsin or a mixture of different enzymes, for example, during incubation at 37° C. for 1 hour.
Following removal of the adhered bacteria, the fabric samples were removed from the microtiter plates.
The number of removed bacteria in the resulting suspension was determined by staining with Syto9 and fluorescence measurement (fluorescence filter with excitation at 485/20 nm and emission at 528/20 nm) or by staining with BacTiterGlo and bioluminescence measurement. Furthermore, it is possible to determine the number of adhered and removed microorganisms by means of protein assay (e.g., BCA assay, Bradford Assay) or optical density proliferation assay.
The relative variables (e.g., fluorescence units (RFU)) concerning the coated and uncoated fabrics were compared, allowing the reduction in adhered bacteria in % to be determined in accordance with the following formula: Reduction in adhered bacteria[%]=[(RFUuc−RFUuc)/RFUuc]*100 where • RFUuc=relative fluorescence units of the removed bacteria of the uncoated substrate • RFUc=relative fluorescence units of the removed bacteria of the coated substrate […]

[2] = system: Staphylococcus aureus; assay: Antimicrobial activity of coated polyester fabric samples as per JIS L 1902; assay type: cell-based; conditions: for Antimicrobial activity[log] Unwashed: 18 hours at 37° C.
Experimental: The procedure here is that the fabric sample was inoculated with a defined amount of a microbial suspension (inoculum). Test specimens with a weight of approximately 0.4 g were investigated in a triplicate determination.
The inoculated fabric sample was incubated in a closed system at 37° C. over a period of 18 hours. Following incubation, the bacteria of a defined amount of a dilution solution were recorded. The difference in the bacterial count of the fabric sample at 0 hours in comparison to the fabric sample after 18 hours served as a basis for evaluation. The antimicrobial activity is reported as a logarithmic or percentage value. Here, a reduction in the microbe count of 0% corresponds to inadequate antimicrobial action, a microbe reduction in the range from 0.1 to less than 90% to an inadequate antibacterial action, and a microbe reduction of greater than 90% to a good antibacterial action.

[3] = system: Escherichia coli; assay: Bacterial adhesion to coated glass slides via fluorescence microscopy (DAPI); assay type: cell-based; conditions: for Reduction in cell count relative to control [%] E. coli: coated glass slide vs uncoated glass control K; for Cell count [1/cm^2] E. coli: glass slide coated from 0.1% strength solution, bacterial suspension 10^9 microbes/ml, 30 measuring windows
Excerpt: Silane derivatives S1, S3, S4 and S5 as identified above in example 1 were used to produce coatings on glass slides. As a control (comparison sample) K, an uncoated glass slide cleaned with isopropanol was used.
For the coating of the slides they were immersed for 60 seconds into a 0.1% strength solution of the corresponding silane derivative in ethanol/water as solvent with a water fraction of 5%. The solutions had been adjusted with acetic acid beforehand to a pH in the range from 4 to 5. The wetted slides were subsequently dried at 160° C. for 1 hour.
The slides wetted with the bacterial suspension were analyzed by microscope to determine the adhering bacteria. […] The fluorescent dye used was DAPI (4′,6-diamidine-2-phenylindole), which binds to DNA and fluoresces under UV excitation. In order to determine the adhesion characteristics, the cell counts per cm^2 were ascertained in 30 measuring windows, and the adhesion pattern was evaluated. Cell attachment was evaluated on an Olympus IX 51 using the Labflow AnalySIS image processing program.
Bacterial suspensions produced and used were suspensions of test cultures of the strains Staphylococcus aureus and Escherichia coli. The concentration of the bacterial suspension was 10^9 microbes/ml.

[4] = coating concentration 0.001 %, wash pretreatment (A) unwashed
[5] = coating concentration 0.001 %, wash pretreatment (B) washed twice at 30° C. only with water
[6] = coating concentration 0.001 %, wash pretreatment (C) washed once at 30° C. EN ISO 6330 method 8A with ECE B detergent
[7] = coating concentration 0.01 %, wash pretreatment (A) unwashed
[8] = coating concentration 0.01 %, wash pretreatment (B) washed twice at 30° C. only with water
[9] = coating concentration 0.01 %, wash pretreatment (C) washed once at 30° C. EN ISO 6330 method 8A with ECE B detergent
[10] = coating concentration 0.1 %, wash pretreatment (A) unwashed
[11] = coating concentration 0.1 %, wash pretreatment (B) washed twice at 30° C. only with water
[12] = coating concentration 0.1 %, wash pretreatment (C) washed once at 30° C. EN ISO 6330 method 8A with ECE B detergent
[13] = coating concentration 0.001 % based on fabric
[14] = coating concentration 0.01 % based on fabric
[15] = coating concentration 0.1 % based on fabric

Compound | Reduction in adhered bacteria [%] [1, 4] | Reduction in adhered bacteria [%] [1, 5] | Reduction in adhered bacteria [%] [1, 6] | Reduction in adhered bacteria [%] [1, 7] | Reduction in adhered bacteria [%] [1, 8] | Reduction in adhered bacteria [%] [1, 9] | Reduction in adhered bacteria [%] [1, 10] | Reduction in adhered bacteria [%] [1, 11] | Reduction in adhered bacteria [%] [1, 12] | Reduction in adhered bacteria [%] S. aureus [1] | Antimicrobial activity[log] Unwashed [2, 13] | Antimicrobial activity[log] Washed once at 30° C., without detergent [2, 13] | Antimicrobial activity[log] Washed twice with water [2, 13] | Antimicrobial activity[log] Unwashed [2, 14] | Antimicrobial activity[log] Washed once at 30° C., without detergent [2, 14] | Antimicrobial activity[log] Washed twice with water [2, 14] | Antimicrobial activity[log] Unwashed [2, 15] | Antimicrobial activity[log] Washed once at 30° C., without detergent [2, 15] | Antimicrobial activity[log] Washed twice with water [2, 15] | Reduction in cell count relative to control [%] E. coli [3] | further results
N-(triethoxysilylpropyl)-O-polyethylene oxide-urethane, (4-6 EO units) [S3] | 57% | 54% | 69% | 63% | 34% | 58% | 47% | 46% | 61% | 55% | −0.5 log | −0.8 log | −0.3 log | −0.1 log | −0.1 log | 0.8 log | 0.0 log | −0.4 log | 0.3 log | 71% | adhesion of bacteria to coated glass, assessment in words ([3]; both series of tests (S. aureus and E. coli), compared with glass control): very good results; Cell count [1/cm^2] E. coli [3]: 233 000 1/cm^2
CO[Si](CCCN(CCN(CC(=O)[O-])CC(=O)[O-])CC(=O)[O-])(OC)OC.[Na+].[Na+].[Na+] [S5, N-(trimethoxysilylpropyl)ethylenediaminetriacetyl acid, trisodium salt] | 69% | 59% | 75% | 44% | 22% | 53% | 72% | 68% | 38% | 46% | 0.5 log | −0.3 log | 0.9 log | −0.3 log | −0.6 log | −0.2 log | −0.5 log | −0.6 log | −0.4 log | 61% | Cell count [1/cm^2] E. coli [3]: 306 000 1/cm^2
